Counter-ions that a name gives are not always drawn.
Row | SMILES | melting point
1 | N=C(N)c1ccc2c(c1)CN(CC(=O)N1CCC(OCC(=O)O)CC1)C2=O (as salt: hydrochloride) (hydrate or solvate) [Example 73, (1-{2-[5-Carbamimidoyl-1-oxo-1,3-dihydro-isoindol-2-yl]-acetyl}-piperidin-4-yloxy)-acetic acid] | 135 to 136 °C
2 | CC(C)COC(=O)COc1ccc(C(=O)CN2Cc3cc(C(=N)N)ccc3C2=O)cc1OCC(=O)OCC(C)C (as salt: hydroiodid) [Example 24, (4-{2-[5-Carbamimidoyl-1-oxo-1,3-dihydro-isoindol-2-yl]-acetyl}-2-isobutoxycarbonylmethoxy-phenoxy)acetic acid isobutyl ester] | 95 to 96 °C
3 | CCOC(=O)COc1ccc(C(=O)CN2Cc3cc(NC(C)=N)ccc3C2=O)c(O)c1 (as salt: iodide) (hydrate or solvate) [Example 74, (4-{2-[5-Acetimidoylamino-1-oxo-1,3-dihydro-isoindol-2-yl]-acetyl}-3-hydroxy-phenoxy)-acetic acid ethyl ester] | 196 to 197 °C
4 | N=C(N)c1ccc2c(c1)CN(CC(=O)c1ccc(OCC(=O)OCc3ccccc3)cc1)C2=O (as salt: salt) (hydrate or solvate) [Example 16, (4-{2-[5-Carbamimidoyl-1-oxo-1,3-dihydro-isoindol-2-yl]-acetyl}-phenoxy)-acetic acid benzyl ester] | 190 °C (dec.)
5 | CCOC(=O)COc1ccc(C(=O)CN2Cc3cc(C(=N)N)ccc3C2=O)cc1OCC(=O)OCC (as salt: salt) (hydrate or solvate) [Example 20, (4-{2-[5-Carbamimidoyl-1-oxo-1,3-dihydro-isoindol-2-yl]-acetyl}-2-ethoxycarbonylmethoxy-phenoxy)-acetic acid ethyl ester] | 168 to 169 °C
6 | CCOC(=O)COC1CCN(C(=O)CN2Cc3cc(C(=N)N)ccc3C2=O)CC1 (as salt: salt) (hydrate or solvate) [Example 71, (1-{2-[5-Carbamimidoyl-1-oxo-1,3-dihydro-isoindol-2-yl]-acetyl}-piperidin-4-yloxy)-acetic acid ethyl ester] | 189 to 190 °C
7 | CCN(CC)C(=O)COc1ccc(C(=O)CN2Cc3cc(C(=N)N)ccc3C2=O)cc1 (as salt: salt) [Example 25, 2-(4-{2-[5-Carbamimidoyl-1-oxo-1,3-dihydro-isoindol-2-yl]-acetyl}-phenoxy)-N,N-diethyl-acetamide] | 194 to 195 °C
8 | CCOC(=O)C(CCNC(=O)OCc1ccccc1)Oc1ccc(C(=O)CN2Cc3cc(C(=N)N)ccc3C2=O)cc1 (centres unmarked) (as salt: salt) [Example 27, 4-Benzyloxycarbonylamino-2-(4-{2-[5-carbamimidoyl-1-oxo-1,3-dihydro-isoindol-2-yl]-acetyl}-phenoxy)-butyric acid ethyl ester] | 164 to 165 °C
9 | CCOC(=O)CN1CCN(C(=O)CN2Cc3cc(C(=N)N)ccc3C2=O)CC1 (as salt: salt) [Example 66, (4-{2-[5-Carbamimidoyl-1-oxo-1,3-dihydro-isoindol-2-yl]-acetyl}-piperazine-1-yl)-acetic acid ethyl ester] | 211 to 212 °C
10 | N=C(N)c1ccc2c(c1)CN(CC(=O)c1ccc(OCC(=O)O)cc1O)C2=O (as salt: trifluoroacetate) [Example 44, (4-{2-[5-Carbamimidoyl-1-oxo-1,3-dihydro-isoindol-2-yl]-acetyl}-3-hydroxy-phenoxy)-acetic acid] | 262 °C (dec.)
11 | CCCc1c(OCC(=O)O)ccc(C(=O)CN2Cc3cc(C(=N)N)ccc3C2=O)c1O (as salt: trifluoroacetic acid salt) [Example 60, (4-{2-[5-Carbamimidoyl-1-oxo-1,3-dihydro-isoindol-2-yl]-acetyl}-3-hydroxy-2-propyl-phenoxy)-acetic acid] | 222 to 223 °C
12 | COC(=O)COc1ccc(C(=O)CN2Cc3cc(C(=N)NO)ccc3C2=O)cc1 (hydrate or solvate) [Example 2, (4-{2-[5-(N-Hydroxycarbamimidoyl)-1-oxo-1,3-dihydro-isoindol-2-yl]-acetyl}-phenoxy)-acetic acid methyl ester] | 175 to 176 °C
13 | CC(C)COC(=O)NC(=N)c1ccc2c(c1)CN(CC(=O)c1ccc(OCC(=O)OC(C)C)cc1)C2=O (hydrate or solvate) [Example 7, (4-{2-[5-(Imino-isobutoxycarbonylamino-methyl)-1-oxo-1,3-dihydro-isoindol-2-yl]-acetyl}-phenoxy)-acetic acid isopropyl ester] | 155 to 157 °C
14 | CC(C)OC(=O)COc1ccc(C(=O)CN2Cc3cc(C(=N)NC(=O)OCc4ccccc4)ccc3C2=O)cc1 (hydrate or solvate) [Example 8, (4-{2-[5-(Benzyloxycarbonylamino-imino-methyl)-1-oxo-1,3-dihydro-isoindol-2-yl]-acetyl}-phenoxy)-acetic acid isopropyl ester] | 156 to 158 °C
15 | CC(C)OC(=O)COc1ccc(C(=O)CN2Cc3cc(C(=N)NO)ccc3C2=O)cc1 (hydrate or solvate) [Example 9, (4-{2-[5-(N-Hydroxycarbamimidoyl)-1-oxo-1,3-dihydro-isoindol-2-yl]-acetyl}-phenoxy)-acetic acid isopropyl ester] | 164 to 166 °C
16 | CC(C)COC(=O)COc1ccc(C(=O)CN2Cc3cc(C(=N)NC(=O)OCC(C)C)ccc3C2=O)cc1 (hydrate or solvate) [Example 12, (4-{2-[5-(Imino-isobutoxycarbonylamino-methyl)-1-oxo-1,3-dihydro-isoindol-2-yl]-acetyl}-phenoxy)-acetic acid isobutyl ester] | 140 to 141 °C
17 | COC(=O)NC(=N)c1ccc2c(c1)CN(CC(=O)c1ccc(OCC(=O)OCc3ccccc3)cc1)C2=O (hydrate or solvate) [Example 18, (4-{2-[5-(Imino-methoxycarbonylamino-methyl)-1-oxo-1,3-dihydro-isoindol-2-yl]-acetyl}-phenoxy)-acetic acid benzyl ester] | 184 to 186 °C
18 | CC(C)COC(=O)NC(=N)c1ccc2c(c1)CN(CC(=O)c1ccc(OCC(=O)OCc3ccccc3)cc1)C2=O (hydrate or solvate) [Example 19, (4-{2-[5-(Imino-isobutoxycarbonylamino-methyl)-1-oxo-1,3-dihydro-isoindol-2-yl]-acetyl}-phenoxy)-acetic acid benzyl ester] | 162 to 163 °C
19 | N=C(N)c1ccc2c(c1)CN(CC(=O)c1ccc(OCC(=O)OC3CCN(C(=O)OCc4ccccc4)CC3)cc1)C2=O (hydrate or solvate) [Example 26, 4-(2-{4-[2-(5-Carbamimidoyl-1-oxo-1,3-dihydro-isoindol-2-yl)-acetyl]-phenoxy}-acetoxy)-piperidine-1-carboxylic acid benzyl ester] | 180 to 181 °C

More lines, now with the values ahead:

Row | melting point | SMILES
20 | > 250 °C (dec.) | N=C(N)c1ccc2c(c1)CN(CC(=O)c1ccc(OCC(=O)O)cc1)C2=O (as salt: hydrochloride) (hydrate or solvate) [Example 17, (4-{2-[5-Carbamimidoyl-1-oxo-1,3-dihydro-isoindol-2-yl]-acetyl}-phenoxy)-acetic acid]
21 | 185 to 186 °C | CCOC(=O)COc1ccc(C(=O)CN2Cc3cc(C(=N)N)ccc3C2=O)cc1SCC (as salt: salt) (hydrate or solvate) [Example 33, (4-{2-[5-Carbamimidoyl-1-oxo-1,3-dihydro-isoindol-2-yl]-acetyl}-2-ethylsulfanyl-phenoxy)-acetic acid ethyl ester]
22 | 174 to 175 °C | CCOC(=O)COc1ccc(C(=O)CN2Cc3cc(C(=N)N)ccc3C2=O)cc1S(=O)(=O)CC (as salt: salt) (hydrate or solvate) [Example 35, (4-{2-[5-Carbamimidoyl-1-oxo-1,3-dihydro-isoindol-2-yl]-acetyl}-2-ethanesulfonyl-phenoxy)-acetic acid ethyl ester]
23 | 186 to 188 °C | CCOC(=O)COc1ccc(C(=O)CN2Cc3cc(C(=N)N)ccc3C2=O)c(OCC(=O)OCC)c1 (as salt: salt) (hydrate or solvate) [Example 47, (4-{2-[5-Carbamimidoyl-1-oxo-1,3-dihydro-isoindol-2-yl]-acetyl}-3-ethoxycarbonylmethoxy-phenoxy)-acetic acid ethyl ester]
24 | 181 to 182 °C | COC(=O)COc1ccc(C(=O)CN2Cc3cc(C(=N)N)ccc3C2=O)cc1 (as salt: salt) [Example 1, (4-{2-[5-Carbamimidoyl-1-oxo-1,3-dihydro-isoindol-2-yl]-acetyl}-phenoxy)-acetic acid methyl ester]
25 | 172 to 173 °C | CCOC(=O)COc1ccc(C(=O)CN2Cc3cc(C(=N)N)ccc3C2=O)cc1Cl (as salt: salt) [Example 30, (4-{2-[5-Carbamimidoyl-1-oxo-1,3-dihydro-isoindol-2-yl]-acetyl}-2-chloro-phenoxy)-acetic acid ethyl ester]
26 | 195 to 196 °C | CCOC(=O)COc1ccc(C(=O)CN2Cc3cc(C(=N)N)ccc3C2=O)c(O)c1 (as salt: salt) [Example 41, (4-{2-[5-Carbamimidoyl-1-oxo-1,3-dihydro-isoindol-2-yl]-acetyl}-3-hydroxy-phenoxy)-acetic acid ethyl ester]
27 | 175 to 178 °C | CCOC(=O)COc1ccc(C(=O)CN2Cc3cc(C(=N)NO)ccc3C2=O)cc1 (hydrate or solvate) [Example 4, (4-{2-[5-(N-Hydroxycarbamimidoyl)-1-oxo-1,3-dihydro-isoindol-2-yl]-acetyl}-phenoxy)-acetic acid ethyl ester]
28 | 162 °C | CC(C)OC(=O)COc1ccc(C(=O)CN2Cc3cc(C(=N)N)ccc3C2=O)cc1 (hydrate or solvate) [Example 5, (4-{2-[5-Carbamimidoyl-1-oxo-1,3-dihydro-isoindol-2-yl]-acetyl}-phenoxy)-acetic acid isopropyl ester]
29 | 190 to 191 °C | CCOC(=O)COc1ccc(C(=O)CN2Cc3cc(C(=N)NO)ccc3C2=O)cc1SCC (hydrate or solvate) [Example 34, (2-Ethylsulfanyl-4-{2-[5-(N-hydroxycarbamimidoyl)-1-oxo-1,3-dihydro-isoindol-2-yl]-acetyl}-phenoxy)-acetic acid ethyl ester]
